Data taken from US11389449B2, “Treatment of metabolic syndrome with an sGC stimulator” (Cyclerion Therapeutics, Inc., priority 2017, dated 2022).
Entries after “also recorded” stand apart in the source; their conditions may differ.

Key:
ZSF1 obese rats = experiment: Fasting serum insulin in ZSF1 rats (Rat Insulin ELISA); assay type: in vivo
From the text: Blood and 24-hour urine samples were obtained from all animals at day 0 (15 weeks of age; prior to the initiation of enalapril treatment). Animals in Groups 3, 7, 8 and 9 were placed on drinking water containing enalapril and kept on Purina 5008 rodent chow (C13000). Animals in Group 1, 2, 4, 5 and 6 were kept on Purina 5008 rodent chow and drinking water. Ten days after the initiation of enalapril treatment, blood and 24-hour urine samples were collected from all animals. After day 10 blood and urine collections, animals in Groups 4, 5 and 6 received Compound I at 1, 3 and 10 mg/kg/day, respectively for 11 weeks. In addition to enalapril treatment, animals in Groups 7, 8 and 9 received Compound I at 1, 3 and 10 mg/kg/day, respectively for an additional 11 weeks.
10 weeks after the initiation of Compound I treatment, animals (27 weeks of age) were fasted for 18 hours. Serum samples were collected for the measurement of fasting insulin levels. Serum insulin levels were determined using the Rat Insulin ELISA kit (Cat #ELR-Insulin, RayBiotech, Inc.)
The data are expressed as mean±SEM. […] One-tailed tests were used for comparison of variables. Statistical significance is indicated by P values less than 0.05.

[1] = tested on: patients with stable type 2 diabetes and hypertension; experiment: Randomized placebo-controlled Phase 2a study of 2 dose regimens (NCT03091920), metabolic assessments; assay type: in vivo, human; conditions: for Apolipoprotein B Change LS Mean / Apolipoprotein B LS Mean Diff (placebo adjusted): serum; for serum triglycerides LS Mean Diff (placebo adjusted) / serum triglycerides LS Mean reduction from baseline: Day 15
Protocol: The serum ApoB level was determined using microsphere-based HSP-ApoB assay, consisting of using antigen-specific antibodies optimized in a capture-sandwich format. 5 μL of a diluted mixture of capture-antibody microspheres were mixed with 5 μL bloker and 10 μL standard, pre-diluted sample, or control in a hard-bottom microtiter plate. Plama and serum samples were diluted of the appropriate dilution. The plate was incubated for 1 hour at room temperature. 10 μL biotinylated detection antibody was added to each well, thoroughly-mixed and incubated for 1 hour. 10 μL diluted Streptavidin-phycoerythrin was added to each well, thoroughly mixed, and incubated for 60 minutes. A filter-membrane microtiter plate was pre-wetted by adding 100 μL wash buffer followed by aspiration via a vaccum manifoled device. The reaction contents of the hard-bottom plate were then transferred to the respective wells of the filter plate. All wells were vacuum aspirated and the contents were washed twice with 100 μL wash buffer. After the last wash, 100 μL wash buffer was added to each well, and the washed microspheres were resuspended with thorough mixing. The plate was then analyzed on the Luminex platform.
Plasma ADMA concentrations were determined by liquid chromatography and tandem mass spectrometry (LC-MS/MS). Plasma samples of the patients were collected in a purple-top container with K2 EDTA anticoagulant. The tube was filled completely and the sample was mixed well and separated by centrifugation. A minium volume of 0.20 mL was needed for testing and the plasma sample was extracted by a simple protein precipation. The supernatant was then transferred to a diluent before analysis. The extract was analyzed using liquid chromatography (LC) with tandem mass spectrometry (MS/MS). The standard curve was 10.0 ng/mL to 1000.0 ng/mL.
The primary objectives of this clinical study (ClinicalTrials.gov Identifier: NCT03091920) were to compare the safety, tolerability, PK profile, and PD effects of 2 treatment regimens of Compound I tablet (40 mg per day, as 20 mg BID or as 40 mg QD) administered orally for 2 weeks to patients with stable type 2 diabetes mellitus and hypertension. Patients in this trial were on stable medications for glucose control (blood glucose lowering medication, antihyperglycemics) and hypertension (antihypertensives). Secondary measurements included assessment of fasting glucose levels, fasting insulin levels, hemoglobin A1C (HbA1C) levels, serum cholesterol levels, ApoB levels, HOMA-IR, ADMA concentrations, serum triglyceride levels, BMI, liver transaminases and body weight, among others.
Allocation: Randomized; Intervention Model: Parallel Assignment; Masking: Triple (Participant, Care Provider, Investigator); Masking Description: Double-Blind; Primary Purpose: Treatment
This is a randomized, double-blind, placebo-controlled study consisting of 3 distinct periods (see FIG. 30).
13 male patients and 13 female patientes with stable type 2 diabetes and hypertension were enrolled. Patients were randomized in a 5:5:3 ratio (QD:BID:Placebo) to receive 1 of 2 Compound I treatment regimens or placebo (all regimens were masked) as outlined in the table above.
Clinic Period: The Clinic Period began at Check-in on Day-2 (2 days before dosing) and ended at the time of Discharge on Day 15. During the 17-day Clinic Period, patients were confined to the Study Center and received a standard diet for diabetics. Patients who met eligibility criteria based on Screening Visit assessments were admitted to the Study Center on Day-2 for baseline procedures. On the morning of Day 1 (there is no Day 0), eligible patients were randomized in a 5:5:3 ratio to 1 of 3 masked treatment regimens: QD/QD, BID/QD, or PBO/PBO. On Days 1 to 14, patients received a morning (AM) dose and an evening (PM) dose.
Compound I was administered as multiples of a 5 mg oral tablet dosage form. Placebo was administered as multiples of a 5 mg tablet. […]

[2] = 40 mg, regimens combined, 14 days
[3] = subgroup of 18 patients on concomitant statin therapy, regimens combined, 14 days

OC(CNc1nc(-c2cc(-c3ccon3)n(Cc3ccccc3F)n2)ncc1F)(C(F)(F)F)C(F)(F)F [Compound I]
Fasting Insulin (ZSF1 obese rats; week 10, Compound I 1 mpk): 15.7 ± 3.5 μIU/mL
Fasting Insulin (ZSF1 obese rats; week 10, Compound I 3 mpk): 15.6 ± 2.7 μIU/mL
Fasting Insulin (ZSF1 obese rats; week 10, Compound I 10 mpk): 11.7 ± 1.6 μIU/mL
HDL cholesterol levels ([1]; 40 mg total daily dose, over the trial): remained unchanged; also recorded: remained closed to baseline; also recorded: no changes
mean serum ALT decrease from baseline [1, 2]: 4.9 IU/L
mean serum AST decrease from baseline [1, 2]: 4.5 IU/L
mean serum GGT decrease from baseline [1, 2]: 2.4 U/L
Mean Apo-B levels decline in treated patients ([1]; 14 days): approximately 17%
HbA1C levels over placebo ([1]; 14 days of treatment): No meaningful improvements
plasma fasting glucose LS Mean reduction from baseline ([1]; BID/QD (20 mg BID days 1-7; 40 mg QD days 8 to 14), day 15): -35.3 mg/dL
Apolipoprotein B Change LS Mean ([1]; BID/QD (N = 10), day 15): -219.4 µg/mL
serum triglycerides LS Mean Diff (placebo adjusted) ([1]; BID/QD): -14.3 mg/dL
serum triglycerides LS Mean reduction from baseline ([1]; BID/QD): -46.4 mg/dL
LDL cholesterol Mean Diff (SE), placebo adjusted ([1]; BID/QD, day 15): −20.2 (9.2) mg/dL
LDL cholesterol Mean reduction from baseline (SE), least square ([1]; BID/QD, day 15): −14.0 (5.6) mg/dL
plasma fasting glucose LS Mean Diff (placebo adjusted) ([1]; BID/QD, day 15): -15.6 mg/dL
serum cholesterol LS Mean Diff (placebo adjusted) ([1]; BID/QD, day 15): -20.9 mg/dL
serum cholesterol LS Mean reduction from baseline ([1]; BID/QD, day 15): -20.2 mg/dL
serum LDL cholesterol reduced when compared to placebo ([1]; BID/QD, day 15, after 14 days of treatment): about 20 mg/dL
serum LDL cholesterol reduced when compared to placebo ([1]; BID/QD, day 15, % of total cholesterol): 13%
Apolipoprotein B LS Mean Diff (placebo adjusted) ([1]; BID/QD, day 15): -168.9 µg/mL
plasma fasting glucose LS Mean reduction from baseline ([1]; Combined group (BID/QD and QD/QD), day 15): -32.5 mg/dL
serum triglycerides LS Mean Diff (placebo adjusted) ([1]; Combined group): -14.2 mg/dL
serum triglycerides LS Mean reduction from baseline ([1]; Combined group): -46.2 mg/dL
LDL cholesterol Mean Diff (SE), placebo adjusted ([1]; Combined group, day 15): −20.2 (8.3) mg/dL
LDL cholesterol Mean reduction from baseline (SE), least square ([1]; Combined group, day 15): −13.9 (4.0) mg/dL
plasma fasting glucose LS Mean Diff (placebo adjusted) ([1]; Combined group, day 15): -12.8 mg/dL
serum cholesterol LS Mean Diff (placebo adjusted) ([1]; Combined group, day 15): -25.5 mg/dL
serum cholesterol LS Mean reduction from baseline ([1]; Combined group, day 15): -24.7 mg/dL
Apolipoprotein B Change LS Mean ([1]; Overall 40 mg Total Daily Dose (N = 20), day 15): -169.5 µg/mL
plasma fasting glucose LS Mean reduction from baseline ([1]; QD/QD (40 mg QD days 1 to 14), day 15): -29.6 mg/dL
Apolipoprotein B Change LS Mean ([1]; QD/QD (N = 10), day 15): -119.6 µg/mL
serum triglycerides LS Mean Diff (placebo adjusted) ([1]; QD/QD): -14.0 mg/dL
serum triglycerides LS Mean reduction from baseline ([1]; QD/QD): -46.0 mg/dL
LDL cholesterol Mean Diff (SE), placebo adjusted ([1]; QD/QD, day 15): −19.9 (9.2) mg/dL
LDL cholesterol Mean reduction from baseline (SE), least square ([1]; QD/QD, day 15): −13.7 (5.6) mg/dL
plasma fasting glucose LS Mean Diff (placebo adjusted) ([1]; QD/QD, day 15): -10.0 mg/dL
serum cholesterol LS Mean Diff (placebo adjusted) ([1]; QD/QD, day 15): -30.1 mg/dL
serum cholesterol LS Mean reduction from baseline ([1]; QD/QD, day 15): -29.3 mg/dL
serum LDL cholesterol reduced when compared to placebo ([1]; QD/QD, day 15, after 14 days of treatment): about 20 mg/dL
serum LDL cholesterol reduced when compared to placebo ([1]; QD/QD, day 15, % of total cholesterol): 13%
Apolipoprotein B LS Mean Diff (placebo adjusted) ([1]; QD/QD, day 15): -69.1 µg/mL
fasting plasma insulin levels over placebo ([1]; all of 26 patients, including those on insulin therapy): no meaningful improvements
ADMA plasma concentration decrease from baseline ([1]; combined Compound I group, 14 day study, baseline of 105 ng/ml): 8.7 ng/mL
ADMA plasma concentration mean reduction adjusted to placebo ([1]; combined group, after 14 days of treatment): about 11 ng/mL
serum ALT change compared to baseline ([1]; over 14 days): −4.9 IU/L
serum ALT reduction compared to baseline ([1]; over 14 days): 20%
serum AST change compared to baseline ([1]; over 14 days): −4.5 IU/L
serum AST reduction compared to baseline ([1]; over 14 days): 20%
weight or BMI, adjusted to placebo ([1]; over the 14 days of treatment): No meaningful changes
fasting plasma insulin change adjusted to placebo ([1]; patients not on insulin): -13 pmol/L
reduction in HOMA-IR from baseline ([1]; patients not taking concomitant insulin (12 on Compound I), 14 days): 36%
reduction in HOMA-IR adjusted to placebo ([1]; patients not taking concomitant insulin, 14 days): 23%
apolipoprotein B decline, Compound I vs. PBO-treated patients ([1]; post-hoc analysis, 14 days): -119 µg/mL
LDL cholesterol decrease in treated vs. placebo patients [1, 3]: -16 mg/dL
total cholesterol decrease in treated vs. placebo patients [1, 3]: -17 mg/dL
mean decrease of plasma blood glucose relative to placebo ([1]; subgroup using only oral antihyperglycemic agents without insulin, regimens combined, 14 days): -19 mg/dL
